Source: US8779004B2, “Stable emulsion formulations” (Amgen, Inc., priority 2006, dated 2014)

Experiment: Short-term storage stability of emulsions (drug conc., pH, particle size)
Type: physicochemical
Details: for stability in the emulsion formulation: over 12 weeks, 5° C. and 40° C.; for Cinacalcet conc. / D(4, 3) / pH: emulsion
From the text: This Example illustrates the effect of the storage temperature on short-term stability of the formulations of the invention as measured by pH and the size of the droplets. The results of short term stability of cinacalcet at different temperatures and varying TRIS buffer concentrations are presented in Table 8. Cinacalcet was stable in the emulsion formulation over 12 weeks. The pH of the emulsion is lower over time for both placebo and cinacalcet emulsions. The drop in pH is less at lower storage temperature and higher TRIS concentration.
The results of short-term stability of cinacalcet at different temperatures and varying DEA buffer concentrations are presented in Table 9. Cinacalcet was stable in the emulsion formulation over 12 weeks. pH of the emulsion is lower over time for both placebo and cinacalcet emulsion. The drop in pH is less at lower storage temperature and higher DEA concentration.

With `C[C@@H](NCCCc1cccc(C(F)(F)F)c1)c1cccc2ccccc12` [Cinacalcet, N-(1-(R)-(1-naphthyl)ethyl]-3-[3-(trifluoromethyl)phenyl]-1-aminopropane] the “stability in the emulsion formulation” value (DEA buffered emulsion) was “stable”, the “stability in the emulsion formulation” value (TRIS buffered emulsion) was “stable” and the Cinacalcet conc. (DEA 0.05%, 5° C., 0 weeks) was 4.42 mg/mL. It also gave a D(4, 3) (DEA 0.05%, 5° C., 0 weeks) of 0.39 µm, a pH (DEA 0.05%, 5° C., 0 weeks) of 8.77 and a Cinacalcet conc. (DEA 0.05%, 5° C., 2 weeks) of 4.14 mg/mL. It also gave a D(4, 3) (DEA 0.05%, 5° C., 2 weeks) of 0.39 µm, a pH (DEA 0.05%, 5° C., 2 weeks) of 8.64 and a Cinacalcet conc. (DEA 0.05%, 5° C., 4 weeks) of 4.35 mg/mL. The D(4, 3) (DEA 0.05%, 5° C., 4 weeks) was 0.4 µm, the pH (DEA 0.05%, 5° C., 4 weeks) was 8.65 and the Cinacalcet conc. (DEA 0.05%, 5° C., 6 weeks) was 4.28 mg/mL. The D(4, 3) (DEA 0.05%, 5° C., 6 weeks) was 0.76 µm, the pH (DEA 0.05%, 5° C., 6 weeks) was 8.59 and the Cinacalcet conc. (DEA 0.05%, 5° C., 8 weeks) was 4.43 mg/mL. For the same compound, the D(4, 3) (DEA 0.05%, 5° C., 8 weeks) was 0.4 µm, the pH (DEA 0.05%, 5° C., 8 weeks) was 8.67 and the Cinacalcet conc. (DEA 0.05%, 5° C., 12 weeks) was 4.29 mg/mL. It also gave a D(4, 3) (DEA 0.05%, 5° C., 12 weeks) of 0.4 µm, a pH (DEA 0.05%, 5° C., 12 weeks) of 8.58 and a Cinacalcet conc. (DEA 0.05%, 40° C., 0 weeks) of 4.42 mg/mL. It also gave a D(4, 3) (DEA 0.05%, 40° C., 0 weeks) of 0.39 µm, a pH (DEA 0.05%, 40° C., 0 weeks) of 8.77 and a Cinacalcet conc. (DEA 0.05%, 40° C., 2 weeks) of 4.15 mg/mL. It also gave a D(4, 3) (DEA 0.05%, 40° C., 2 weeks) of 0.39 µm, a pH (DEA 0.05%, 40° C., 2 weeks) of 8.46 and a Cinacalcet conc. (DEA 0.05%, 40° C., 4 weeks) of 4.30 mg/mL. It also gave a D(4, 3) (DEA 0.05%, 40° C., 4 weeks) of 0.4 µm, a pH (DEA 0.05%, 40° C., 4 weeks) of 8.36 and a Cinacalcet conc. (DEA 0.05%, 40° C., 6 weeks) of 4.28 mg/mL. For the same compound, the D(4, 3) (DEA 0.05%, 40° C., 6 weeks) was 0.39 µm, the pH (DEA 0.05%, 40° C., 6 weeks) was 8.25 and the Cinacalcet conc. (DEA 0.05%, 40° C., 8 weeks) was 4.39 mg/mL. It also gave a D(4, 3) (DEA 0.05%, 40° C., 8 weeks) of 0.43 µm, a pH (DEA 0.05%, 40° C., 8 weeks) of 8.29 and a Cinacalcet conc. (DEA 0.05%, 40° C., 12 weeks) of 4.31 mg/mL. For the same compound, the D(4, 3) (DEA 0.05%, 40° C., 12 weeks) was 0.43 µm, the pH (DEA 0.05%, 40° C., 12 weeks) was 8.12 and the Cinacalcet conc. (DEA 0.30%, 5° C., 0 weeks) was 4.78 mg/mL. The D(4, 3) (DEA 0.30%, 5° C., 0 weeks) was 0.36 µm, the pH (DEA 0.30%, 5° C., 0 weeks) was 9.12 and the Cinacalcet conc. (DEA 0.30%, 5° C., 2 weeks) was 4.60 mg/mL. For the same compound, the D(4, 3) (DEA 0.30%, 5° C., 2 weeks) was 0.35 µm, the pH (DEA 0.30%, 5° C., 2 weeks) was 9.07 and the Cinacalcet conc. (DEA 0.30%, 5° C., 4 weeks) was 4.67 mg/mL. For the same compound, the D(4, 3) (DEA 0.30%, 5° C., 4 weeks) was 0.37 µm, the pH (DEA 0.30%, 5° C., 4 weeks) was 9.12 and the Cinacalcet conc. (DEA 0.30%, 5° C., 6 weeks) was 4.60 mg/mL. The D(4, 3) (DEA 0.30%, 5° C., 6 weeks) was 0.37 µm, the pH (DEA 0.30%, 5° C., 6 weeks) was 9.11 and the Cinacalcet conc. (DEA 0.30%, 5° C., 8 weeks) was 4.79 mg/mL. It also gave a D(4, 3) (DEA 0.30%, 5° C., 8 weeks) of 0.37 µm, a pH (DEA 0.30%, 5° C., 8 weeks) of 9.15 and a Cinacalcet conc. (DEA 0.30%, 5° C., 12 weeks) of 4.66 mg/mL. For the same compound, the D(4, 3) (DEA 0.30%, 5° C., 12 weeks) was 0.36 µm, the Cinacalcet conc. (DEA 0.30%, 40° C., 0 weeks) was 4.78 mg/mL and the D(4, 3) (DEA 0.30%, 40° C., 0 weeks) was 0.36 µm. For the same compound, the pH (DEA 0.30%, 40° C., 0 weeks) was 9.12, the Cinacalcet conc. (DEA 0.30%, 40° C., 2 weeks) was 4.58 mg/mL and the D(4, 3) (DEA 0.30%, 40° C., 2 weeks) was 0.36 µm. For the same compound, the pH (DEA 0.30%, 40° C., 2 weeks) was 8.98, the Cinacalcet conc. (DEA 0.30%, 40° C., 4 weeks) was 4.73 mg/mL and the D(4, 3) (DEA 0.30%, 40° C., 4 weeks) was 0.36 µm. The pH (DEA 0.30%, 40° C., 4 weeks) was 8.99, the Cinacalcet conc. (DEA 0.30%, 40° C., 6 weeks) was 4.65 mg/mL and the D(4, 3) (DEA 0.30%, 40° C., 6 weeks) was 0.36 µm. For the same compound, the pH (DEA 0.30%, 40° C., 6 weeks) was 8.93, the Cinacalcet conc. (DEA 0.30%, 40° C., 8 weeks) was 4.83 mg/mL and the D(4, 3) (DEA 0.30%, 40° C., 8 weeks) was 0.37 µm. It also gave a pH (DEA 0.30%, 40° C., 8 weeks) of 8.95, a Cinacalcet conc. (DEA 0.30%, 40° C., 12 weeks) of 4.71 mg/mL and a D(4, 3) (DEA 0.30%, 40° C., 12 weeks) of 0.38 µm.
